In ChEMBL document CHEMBL1133493, “N-acylated alpha-(3-pyridylmethyl)-beta-aminotetralin antagoinists of the human neuropeptide Y Y5 receptor” (Bioorg Med Chem Lett, 2000):

Experiments:
[1] = target: T1, Neuropeptide Y receptor type 5 (Homo sapiens, UniProt Q15761); assay: Inhibition of binding of radioligand [125I]PYY to the human Neuropeptide Y receptor type 5, using a stably transfected HEK293 cell line; type: cell-based
T1 sequence (Q15761 whole entry): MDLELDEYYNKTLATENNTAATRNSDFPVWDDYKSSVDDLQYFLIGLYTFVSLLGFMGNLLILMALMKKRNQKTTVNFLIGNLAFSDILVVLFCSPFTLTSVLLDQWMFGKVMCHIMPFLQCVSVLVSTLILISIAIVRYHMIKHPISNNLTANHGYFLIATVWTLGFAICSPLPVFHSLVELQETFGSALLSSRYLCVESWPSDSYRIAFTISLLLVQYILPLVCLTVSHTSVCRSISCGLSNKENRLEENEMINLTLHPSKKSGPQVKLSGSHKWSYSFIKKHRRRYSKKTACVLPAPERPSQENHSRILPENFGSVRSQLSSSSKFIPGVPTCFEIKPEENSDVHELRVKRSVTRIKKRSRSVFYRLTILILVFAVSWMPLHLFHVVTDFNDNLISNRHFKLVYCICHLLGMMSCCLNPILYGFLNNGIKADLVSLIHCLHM

[2] = target: T2, Neuropeptide Y receptor type 5 (Homo sapiens) (UniProt Q15761); assay: Antagonist potency by inhibition of peptide YY (PYY)-induced incorporation of [35S]GTP-gamma-S into membranes prepared from NPY5 receptor expressing cells, in the presence of 300 nM PYY; type: functional
T2 sequence (whole entry): T1 sequence (Q15761 whole entry)

| Compound | IC50 [1] | Kb [2] |
| --- | --- | --- |
| O=C(NC[C@H]1CC[C@H](C(=O)NC2CCc3cc(F)ccc3C2Cc2cccnc2)CC1)Oc1ccccc1 (stereo partly specified) | 31 nM | – |
| O=C(Cc1ccccc1)NC[C@H]1CC[C@H](C(=O)NC2CCc3cc(F)ccc3C2Cc2cccnc2)CC1 (stereo partly specified) | 114 nM | – |
| O=C(CN1CCC(n2c(O)nc3ccccc32)CC1)NC1CCc2cc(O)ccc2C1Cc1cccnc1 (stereo unspecified) | 6 nM | 21 nM |
| O=C(CN1CCC(NC(=O)Oc2ccccc2)CC1)NC1CCc2cc(F)ccc2C1Cc1cccnc1 (stereo unspecified) | 52 nM | – |
| COc1ccc2c(c1)CCC(NC(=O)CN1CCC(n3c(=O)[nH]c4ccccc43)CC1)C2Cc1cccnc1 (stereo unspecified) | 75 nM | – |
| O=C(Cc1ccccc1)NC1CCN(CC(=O)NC2CCc3cc(F)ccc3C2Cc2cccnc2)CC1 (stereo unspecified) | 36 nM | – |
| O=C(NC[C@H]1CC[C@H](C(=O)NC2CCc3cc(F)ccc3C2Cc2cccnc2)CC1)c1ccccc1 (stereo partly specified) | 39 nM | – |
| O=C(CN1CCC(n2c(O)nc3ccccc32)CC1)NC1CCc2cc(F)ccc2C1Cc1cccnc1 (stereo unspecified) | 25 nM | 21 nM |
| O=C(NC[C@H]1CC[C@H](C(=O)NC2CCc3cc(F)ccc3C2Cc2cccnc2)CC1)Nc1ccccc1 (stereo partly specified) | 170 nM | – |
| O=C(CN1CCC(n2c(=O)[nH]c3ccccc32)CC1)NC1CCc2ccccc2C1Cc1cccnc1 (stereo unspecified) | 22 nM | – |

Second part, the molecule after the results:

| IC50 [1] | Kb [2] | Compound |
| --- | --- | --- |
| 37 nM | – | CC(C)(C)OC(=O)NC1CCN(CC(=O)NC2CCc3cc(F)ccc3C2Cc2cccnc2)CC1 (stereo unspecified) |
| 45 nM | – | CC(C)(C)OC(=O)NC1CCN(CC(=O)NC2CCc3cc(F)ccc3C2Cc2cccnc2)C1 (stereo unspecified) |
| 26 nM | – | O=C(CN1CC[C@H](NC(=O)c2ccccc2)C1)NC1CCc2cc(F)ccc2C1Cc1cccnc1 (stereo partly specified) |
| 236 nM | – | O=C(CN1CCC(NC(=O)Nc2ccccc2)CC1)NC1CCc2cc(F)ccc2C1Cc1cccnc1 (stereo unspecified) |
| 16 nM | – | CC(C)(C)OC(=O)NC[C@H]1CC[C@H](C(=O)NC2CCc3cc(F)ccc3C2Cc2cccnc2)CC1 (stereo partly specified) |
| 30 nM | – | CC(C)(C)OC(=O)N[C@@H]1CCN(CC(=O)NC2CCc3cc(F)ccc3C2Cc2cccnc2)C1 (stereo partly specified) |
| 140 nM | – | CC(C)(C)NC(=O)NC1CCN(CC(=O)NC2CCc3cc(F)ccc3C2Cc2cccnc2)CC1 (stereo unspecified) |
| 28 nM | – | O=C(CN1CCC(NC(=O)c2ccccc2)CC1)NC1CCc2cc(F)ccc2C1Cc1cccnc1 (stereo unspecified) |
| 17 nM | – | CC(C)(C)OC(=O)N[C@H]1CCN(CC(=O)NC2CCc3cc(F)ccc3C2Cc2cccnc2)C1 (stereo partly specified) |
